Reference: ChEMBL document CHEMBL1201862, “PubChem BioAssay data set” (2004)
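Each compound was tested at five concentrations against cells in 96-well plates for 48 hours. GI50 is the concentration that inhibits growth by half.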 The source made the active and inactive calls. Rule as the data show it: active = GI50 up to about 1.1 µM and inactive = higher.

Key:
Assay in all cases: NCI tumour cell line growth inhibition, 48 h
HCT-116 = tested on: HCT-116
SF-539 = tested on: SF-539
KM-20L2 = tested on: KM-20L2
DLD-1 = tested on: DLD-1
UO-31 = tested on: UO-31
SW-620 = tested on: SW-620
SK-MEL-2 = tested on: SK-MEL-2
ACHN = tested on: ACHN
SNB-19 = tested on: SNB-19
HOP-62 = tested on: HOP-62
CAKI-1 = tested on: CAKI-1
SK-MEL-28 = tested on: SK-MEL-28
SN12C = tested on: SN12C
NCI-H522 = tested on: NCI-H522
SNB-78 = tested on: SNB-78
NCI-H460 = tested on: NCI-H460
OVCAR-8 = tested on: OVCAR-8
SF-268 = tested on: SF-268
LOX IMVI = tested on: LOX IMVI
HCC 2998 = tested on: HCC 2998
EKVX = tested on: EKVX
OVCAR-3 = tested on: OVCAR-3
LXFL 529 = tested on: LXFL 529
SK-MEL-5 = tested on: SK-MEL-5
M14 = tested on: M14
KM12 = tested on: KM12
DMS-273 = tested on: DMS-273
SK-OV-3 = tested on: SK-OV-3
TK-10 = tested on: TK-10
HCT-15 = tested on: HCT-15
786-0 = tested on: 786-0
UACC-257 = tested on: UACC-257
SF-295 = tested on: SF-295
U-251 = tested on: U-251
UACC-62 = tested on: UACC-62
OVCAR-4 = tested on: OVCAR-4
HT-29 = tested on: HT-29
HOP-92 = tested on: HOP-92
IGROV-1 = tested on: IGROV-1
COLO 205 = tested on: COLO 205
NCI-H23 = tested on: NCI-H23
A549 = tested on: A549
SR = tested on: SR
MCF7 = tested on: MCF7
RXF 393 = tested on: RXF 393
K562 = tested on: K562
CCRF-CEM = tested on: CCRF-CEM
MDA-MB-435 = tested on: MDA-MB-435
RPMI-8226 = tested on: RPMI-8226
BT-549 = tested on: BT-549
DU-145 = tested on: DU-145
MOLT-4 = tested on: MOLT-4
OVCAR-5 = tested on: OVCAR-5
Hs-578T = tested on: Hs-578T
MDA-MB-231 = tested on: MDA-MB-231
Malme-3M = tested on: Malme-3M
SNB-75 = tested on: SNB-75
MDA-N = tested on: MDA-N
PC-3 = tested on: PC-3
HL-60 = tested on: HL-60
A498 = tested on: A498
T47D = tested on: T47D
NCI-H226 = tested on: NCI-H226
NCI/ADR-RES = tested on: NCI/ADR-RES

SMILES: NC(=O)N=C(NCc1ccccc1)NCc1ccccc1
- GI50 (HCT-116): > 100000 nM (inactive)
- GI50 (SF-539): > 100000 nM (inactive)
- GI50 (KM-20L2): > 100000 nM (inactive)
- GI50 (DLD-1): > 100000 nM (inactive)
- GI50 (UO-31): > 100000 nM (inactive)
- GI50 (SW-620): > 100000 nM (inactive)
- GI50 (SK-MEL-2): > 100000 nM (inactive)
- GI50 (ACHN): > 100000 nM (inactive)
- GI50 (SNB-19): > 100000 nM (inactive)
- GI50 (HOP-62): > 100000 nM (inactive)
- GI50 (CAKI-1): > 100000 nM (inactive)
- GI50 (SK-MEL-28): > 100000 nM (inactive)
- GI50 (SN12C): > 100000 nM (inactive)
- GI50 (NCI-H522): > 100000 nM (inactive)
- GI50 (SNB-78): > 100000 nM (inactive)
- GI50 (NCI-H460): > 100000 nM (inactive)
- GI50 (OVCAR-8): > 100000 nM (inactive)
- GI50 (SF-268): > 100000 nM (inactive)
- GI50 (LOX IMVI): > 100000 nM (inactive)
- GI50 (HCC 2998): > 100000 nM (inactive)
- GI50 (EKVX): > 100000 nM (inactive)
- GI50 (OVCAR-3): > 100000 nM (inactive)
- GI50 (LXFL 529): > 100000 nM (inactive)
- GI50 (SK-MEL-5): > 100000 nM (inactive)
- GI50 (M14): > 100000 nM (inactive)
- GI50 (KM12): > 100000 nM (inactive)
- GI50 (DMS-273): > 100000 nM (inactive)
- GI50 (SK-OV-3): > 100000 nM (inactive)
- GI50 (TK-10): > 100000 nM (inactive)
- GI50 (HCT-15): > 100000 nM
- GI50 (786-0): > 100000 nM (inactive)
- GI50 (UACC-257): > 100000 nM (inactive)
- GI50 (SF-295): > 100000 nM (inactive)
- GI50 (U-251): > 100000 nM (inactive)
- GI50 (UACC-62): > 100000 nM (inactive)
- GI50 (OVCAR-4): > 100000 nM (inactive)
- GI50 (HT-29): > 100000 nM (inactive)
- GI50 (HOP-92): 20000 nM (inactive)
- GI50 (IGROV-1): > 100000 nM (inactive)
- GI50 (COLO 205): > 100000 nM (inactive)
- GI50 (NCI-H23): > 100000 nM (inactive)
- GI50 (A549): > 100000 nM (inactive)

SMILES: Nc1ncnn2c(C3OC(CO)C(O)C3O)ccc12 (stereo unspecified)
- GI50 (SR): 36.4 nM (active)
- GI50 (MCF7): 164 nM (active)
- GI50 (HCT-116): 21.6 nM (active)
- GI50 (SF-539): 106 nM (active)
- GI50 (RXF 393): 226 nM (active)
- GI50 (UO-31): 120 nM (active)
- GI50 (K562): 163 nM (active)
- GI50 (CCRF-CEM): 144 nM (active)
- GI50 (SW-620): 123 nM (active)
- GI50 (SK-MEL-2): 148 nM (active)
- GI50 (ACHN): 170 nM (active)
- GI50 (MDA-MB-435): 137 nM (active)
- GI50 (SNB-19): 421 nM (active)
- GI50 (HOP-62): 261 nM (active)
- GI50 (RPMI-8226): 147 nM (active)
- GI50 (BT-549): 175 nM (active)
- GI50 (CAKI-1): 235 nM (active)
- GI50 (SK-MEL-28): 164 nM (active)
- GI50 (SN12C): 195 nM (active)
- GI50 (NCI-H522): 237 nM (active)
- GI50 (DU-145): 230 nM (active)
- GI50 (MOLT-4): 153 nM (active)
- GI50 (NCI-H460): 97 nM (active)
- GI50 (OVCAR-5): 338 nM (active)
- GI50 (OVCAR-8): 99.1 nM (active)
- GI50 (SF-268): 236 nM (active)
- GI50 (Hs-578T): 87.5 nM (active)
- GI50 (MDA-MB-231): 153 nM (active)
- GI50 (LOX IMVI): 20.1 nM (active)
- GI50 (HCC 2998): 426 nM (active)
- GI50 (Malme-3M): 69.8 nM (active)
- GI50 (EKVX): 366 nM (active)
- GI50 (OVCAR-3): 169 nM (active)
- GI50 (SNB-75): 329 nM (active)
- GI50 (MDA-N): 163 nM (active)
- GI50 (SK-MEL-5): 226 nM (active)
- GI50 (M14): 83.2 nM (active)
- GI50 (KM12): 107 nM (active)
- GI50 (SK-OV-3): 226 nM (active)
- GI50 (TK-10): 214 nM (active)
- GI50 (HCT-15): 138 nM
- GI50 (786-0): 76.6 nM (active)
- GI50 (PC-3): 182 nM (active)
- GI50 (UACC-257): 70.3 nM (active)
- GI50 (SF-295): 323 nM (active)
- GI50 (HL-60): 105 nM (active)
- GI50 (U-251): 125 nM (active)
- GI50 (A498): 155 nM (active)
- GI50 (UACC-62): 136 nM (active)
- GI50 (OVCAR-4): 90.6 nM (active)
- GI50 (HT-29): 148 nM (active)
- GI50 (T47D): 291 nM (active)
- GI50 (HOP-92): 17.3 nM (active)
- GI50 (IGROV-1): 210 nM (active)
- GI50 (NCI-H226): 235 nM (active)
- GI50 (COLO 205): 188 nM (active)
- GI50 (NCI-H23): 137 nM (active)
- GI50 (NCI/ADR-RES): 237 nM (active)
- GI50 (A549): 155 nM (active)
